Measured values published in US20260207535A1, “CRIBLAGE INHIBITEURS USP8” (COMMISSARIAT A L'ENERGIE ATOMIQUE ET AUX ENERGIES …, priority 2022, published 2026).

Tests used:
[1] = target: T1, Full length USP8 (USP8FL) (Homo sapiens, UniProt P40818); assay: USP8FL (full length USP8) enzymatic inhibition, Ub-Rhodamine 110 hydrolysis in L-cysteine buffer; assay type: biochemical; conditions: USP8 FL 75 nM, Ub-Rho 0.1 μM, L-cysteine buffer; read-out: USP8FL inhbition IC50 [μM] (CI: Confidence Interval)
T1 construct: purchased BostonBiochem E-520
T1 sequence (P40818 1-1118): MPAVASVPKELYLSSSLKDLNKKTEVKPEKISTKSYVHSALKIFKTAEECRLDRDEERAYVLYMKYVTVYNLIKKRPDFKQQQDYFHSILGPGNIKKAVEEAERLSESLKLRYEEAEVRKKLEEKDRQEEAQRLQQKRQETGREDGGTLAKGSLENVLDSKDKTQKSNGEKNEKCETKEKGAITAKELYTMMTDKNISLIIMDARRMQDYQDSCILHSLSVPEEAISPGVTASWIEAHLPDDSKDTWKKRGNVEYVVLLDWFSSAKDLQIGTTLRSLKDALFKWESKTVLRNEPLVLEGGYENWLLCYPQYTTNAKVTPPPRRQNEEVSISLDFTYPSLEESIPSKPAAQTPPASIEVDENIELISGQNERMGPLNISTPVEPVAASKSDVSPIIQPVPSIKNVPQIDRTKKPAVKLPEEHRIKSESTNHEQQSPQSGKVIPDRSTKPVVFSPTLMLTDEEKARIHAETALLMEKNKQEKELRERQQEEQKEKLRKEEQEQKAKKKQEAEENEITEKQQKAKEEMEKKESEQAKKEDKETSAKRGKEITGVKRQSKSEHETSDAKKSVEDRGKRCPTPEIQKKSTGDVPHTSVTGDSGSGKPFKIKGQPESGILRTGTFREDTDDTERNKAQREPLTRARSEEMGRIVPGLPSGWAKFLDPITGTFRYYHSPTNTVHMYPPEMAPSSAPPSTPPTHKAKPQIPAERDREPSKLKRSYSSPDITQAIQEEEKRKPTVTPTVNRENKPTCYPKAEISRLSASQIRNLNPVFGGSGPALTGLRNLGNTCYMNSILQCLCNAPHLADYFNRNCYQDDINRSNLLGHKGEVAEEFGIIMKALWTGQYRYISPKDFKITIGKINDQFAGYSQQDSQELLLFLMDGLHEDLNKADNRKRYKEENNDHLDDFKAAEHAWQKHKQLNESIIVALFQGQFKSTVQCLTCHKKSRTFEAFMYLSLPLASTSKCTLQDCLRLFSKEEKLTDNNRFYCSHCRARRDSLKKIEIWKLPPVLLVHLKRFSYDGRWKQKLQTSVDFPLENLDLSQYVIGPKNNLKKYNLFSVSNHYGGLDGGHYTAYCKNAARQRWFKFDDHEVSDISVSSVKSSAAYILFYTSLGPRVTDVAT
Protocol: USP8 FL (USP8 Full Length) was incubated at a concentration of 75 nM in the presence of Ub-Rho (UBIQUIGENT ref. 60-0117-050) at a final concentration of 0.1 μM, in conditions ensuring linearity of enzyme activity throughout the assay in a specific buffer. Compounds were added to the reaction mix at different doses just before the substrate. The enzymatic reaction kinetics were monitored by measuring fluorescence elicited by the hydrolysis of Ub-Rho over 30 min.
In this setup, an in-house purified catalytic domain of USP8 (USP8CD) was used at a concentration of 80 nM in the presence of the artificial substrate Ubiquitin-Rhodamine 110 (Ub-Rho) (ref: 60-0117-050 Ubiquigent) at a final concentration of 0.1 μM, in conditions ensuring linearity of enzyme activity throughout the assay incubation time. Enzymatic assay was performed in a Tris HCl buffer (40 mM Tris HCl pH 7.4, Ovalbumine 0.5 mg/ml, Cysteine HCl 5.5 mM). Compounds to be tested were added to the reaction mix and incubated with enzyme for 20 min, before the substrate. The enzymatic reaction kinetics were monitored by measuring fluorescence elicited by the hydrolysis of the peptidyl Ub-Rho over 30 minutes. The negative control was the solvent DMSO at 1%.
Full length USP8 (USPBFL) (BostonBiochem ref. E-520) were used at a concentration of 75 nM in the presence of a ubiquitin substrate, i.e., the Ub-Rhodamine 110 (Ub-Rho) (Ubiquigent ref. 60-0117-050) at a final concentration of 0.1 μM. Enzymatic assays were performed as described for USP8-CD except that USP-FL was used at a concentration of 75 nM. The compounds were used at a final concentration of 0.1, 1, 5, 10, 50 and 100 μM in DMSO 0.5%. The USP8 catalytic activity was monitored both before adding the substrate (TO) and after twenty minutes of incubation at room temperature (Final Time TF). The enzymatic reaction kinetics were monitored by measuring fluorescence elicited by the hydrolysis of the Ub-Rho bound over 30 minutes.

AtT-20 pituitary cells = assay: Inhibition of ACTH secretion in pituitary cells (ACTH EIA on supernatant); assay type: cell-based, mouse; conditions: for activity at 25 µM: read-out: ACTH secretion % of control (DMSO) at 25 μM
Protocol: ACTH release (percent comparison to DMSO control). Briefly, 12,500 AtT-20 cells per well were seeded in a 96-well plate. After 24 hours exposure, cells were treated with each compound at the indicated final concentration, or with DMSO alone (control condition compound solvent) or with corticotropin releasing factor (indicated CRF) at 100 nM. After a 24-hour treatment, cell supernatants were collected and stored at −80° C., prior to quantification of ACTH concentration using ACTH chemiluminescent EIA kit (Phoenix Pharmaceuticals, Inc.). Determination of ACTH concentrations was based on the best-fitting ACTH standard curve and P values were calculated using one-way ANOVA, using Prism 9 software (GraphPad Software, Inc.) ns (P=0.12). **P<0.002. ***P<0.001. All compounds were tested in technical triplicates. One representative experiment out of three is presented.
FIG. 4: illustrates a decrease of ACTH secretion by AtT-20 cells after 24-hour treatment of halogenated salicylanilides. 12,500 AtT-20 cells per well were seeded in a 96-well plate. […] After a 24-hour treatment, cell supernatants were collected and stored at −80° C., prior to quantification of ACTH concentration using ACTH chemiluminescent EIA kit (Phoenix Pharmaceuticals, Inc.). Determination of ACTH concentrations was based on the best-fitting ACTH standard curve and P values were calculated by ordinary one-way ANOVA using Prism 6 software (GraphPad Software, Inc), ns (not significant), **** P<0.0001. Compounds were tested in technical triplicates.
12,500 AtT-20 cells per well were seeded in a 96-well plate. After 24 hours, cells were treated with compounds (corresponding chemical formula are indicated in Table 1) at 25 μM final concentration, or with DMSO alone (compound solvent). After a 24-hour treatment, cell supernatants were collected and stored at −80° C., prior to quantification of ACTH concentration using ACTH chemiluminescent EIA kit (Phoenix Pharmaceuticals, Inc.). Determination of ACTH concentrations was based on the best-fitting ACTH standard curve and P values were calculated by ordinary one-way ANOVA using Prism 6 software (GraphPad Software, Inc), ns (not significant), *P<0.05, ***P<0,0001. Compounds were tested in technical triplicates.
Mouse AtT-20 pituitary cell line were used as a powerful and well-characterized model to monitor ACTH secretion using an enzyme immunoassay (EIA) kit.
Mouse AtT-20 cells were obtained from the American Type Culture Collection and maintained on DMEM containing 10% fetal bovine serum, 100 μg/mL streptomycin and 100 U/mL penicillin at 37° C. with 5% CO2 after recovery from long-term storage on liquid nitrogen-vapor phase.
The ACTH secretion levels of AtT-20 cell culture was monitored on the supernatant of AtT-20 cells treated or not by increasing doses of compounds belonging to the family of halogenated salicylanilides chemicals.
1.25×10^4 AtT20 cells were seeded on polylysine-coated 96-well culture vessels on 150 μL of complete medium. After 24 hours, cells were treated with stock compounds to a final DMSO concentration of 0.5%. After 24 hours of treatment, cell culture supernatant was collected, cleared for 10 min at 1000×g at 4° C., diluted or not in assay buffer (Phoenix Peptide ACTH EIA EK-001-21) and frozen at −80° C. for subsequent processing according to the instructions of the kit's manufacturer.

AtT-20 cells = assay: Cytotoxicity towards AtT-20 cells (PrestoBlue viability assay)
Text: The AtT-20 cells viability was monitored in the conditions used to follow ACTH secretion. The viability of treated cells was concomitantly evaluated using a Cell Viability Reagent (monitoring of the cells' reducing capacity) (PrestoBlue® assay, Molecular Probes) with the aim to determine non-toxic doses of cell treatment.
After the collection of the supernatant sample for the ACTH assay in the previous step, cells were supplemented with the PrestoBlue™ cell viability reagent (Invitrogen™ A13261) at 10% final volume, and re-incubated at 37° C. for 30 minutes. Fluorescence was then read with a FLUOstar OPTIMA microplate reader.

[2] = Mus musculus, AtT20, 24-hour treatment, AtT-20 supernatant

| IC50 [1] [µM] | SMILES | inhibition of ACTH at 25 μM, in words (FIG. 4, FIG. 5) (AtT-20 pituitary cells; 24-hour treatment) | activity at 25 µM (AtT-20 pituitary cells; [2]) [%] | AtT-20 cell viability (PrestoBlue assay) % of control (DMSO) at 25 μM Mean (SD) (AtT-20 cells; 24-hour exposure) | reduction of ACTH secretion levels (AtT-20 pituitary cells; 0.5 μM) [%] | reduction of ACTH secretion levels (AtT-20 pituitary cells; 1.0 μM) [%] | activity at 27 µM (AtT-20 pituitary cells; Mus musculus, AtT20, 27 μM, 24-hour treatment, AtT-20 supernatant, read-out: ACTH secretion % of control (DMSO) (at 27 μM)) [%] | dose-dependent inhibition of ACTH (FIG. 3) (AtT-20 pituitary cells; increasing concentrations, 24-hour treatment) | toxicity in AtT-20 cells, in words (AtT-20 cells; 0.5 μM) | toxicity in AtT-20 cells, in words (AtT-20 cells; 1.0 μM) | AtT-20 cell viability (PrestoBlue assay) % of control (DMSO) (at 27 μM) Mean (SD) (AtT-20 cells; 27 μM, 24-hour exposure) | dose-dependent viability assay, in words (FIG. 7) (AtT-20 cells; AtT-20 cells, 24-hour exposure, several doses) |
| --- | --- | --- | --- | --- | --- | --- | --- | --- | --- | --- | --- | --- |
| 4.34 | O=C(Nc1ccc(Cl)cc1Cl)c1cc(I)cc(I)c1O [Amb8487151] | significant inhibition | 44 | 89.58 (10.11) % |  |  |  |  |  |  |  |  |
| 13 | O=C(Nc1cc(Cl)ccc1Cl)c1cc(I)cc(I)c1O [Amb8477378] | significant inhibition | 41 | 95.72 (11.42) % |  |  |  |  |  |  |  |  |
| > 100 | O=C(Nc1ccc(O)cc1)c1cc(I)ccc1O [Z69118571] | ineffective | 101 | 106.7 (20.87) % |  |  |  |  |  |  |  |  |
| 61 | O=C(Nc1ccc([N+](=O)[O-])cc1Cl)c1cc(Cl)ccc1O [Niclosamide, reference compound] | significant inhibition |  |  | 27 | 41 | 41 | significant dose-dependent inhibition | no significant toxicity | no significant toxicity | 50% (12,40) (at 27 μM) | considerable effects on viability upon higher doses |
